From paper PMC6893700 (Viruses, 2019)
Where two headings read alike, the source gives them in different places.

Assays:
[1] = test system: DENV-3-V1043; assay: Plaque reduction inhibition assay, DENV-3 in LLC-MK2 cells; type: cell-based; details: Dengue virus, DENV3
[2] = test system: DENV-2-V594; assay: Plaque reduction inhibition assay, DENV-2 in LLC-MK2 cells; type: cell-based; details: Dengue virus, DENV2
[3] = test system: ZIKV strain FLR; assay: Plaque reduction inhibition assay, ZIKV FLR in Vero E6 cells; type: cell-based; details: Zika virus, Vero C1008; plaque reduction, Vero E6 cells; read-out: IC50 FLR
[4] = in vitro; details: African green monkey
[5] = test system: ZIKV strain R116265; assay: Plaque reduction inhibition assay, ZIKV R116265 in Vero E6 cells; type: cell-based; details: Zika virus, Vero C1008
[6] = test system: ZIKV mosquito strain MEX 2–81; assay: Plaque reduction inhibition assay, ZIKV MEX 2–81 in Vero E6 cells; type: cell-based; details: Zika virus, Vero C1008; plaque reduction, Vero E6 cells; read-out: IC50 MEX 2–81
[7] = test system: ZIKV strain PRVABC59; type: cell-based, Zika virus (ZIKV); details: for Fold of Enhancement (natural product with gossypol) / CI (combination index) of gossypol with the named natural product: ZIKV PRVABC59; for Fold of Enhancement (natural product with gossypol): (IC50 alone)/(IC50 in the mixture)—1; for CI (combination index) of gossypol with the named natural product: CI < 1 synergy; for IC50: Zika virus, Vero C1008, ZIKV PRVABC59, Vero E6, natural product without combination, read-out: IC50 Alone
[8] = test system: ZIKV strain PAN2015; assay: Plaque reduction inhibition assay, ZIKV PAN2015 in Vero E6 cells; type: cell-based; details: Zika virus, Vero C1008
[9] = test system: DENV-1-V1792; assay: Plaque reduction inhibition assay, DENV-1 in LLC-MK2 cells; type: cell-based; details: Dengue virus, DENV1
[10] = test system: ZIKV strain FLR; type: cell-based, Zika virus (ZIKV); details: ZIKV FLR; for Fold of Enhancement (natural product with gossypol): (IC50 alone)/(IC50 in the mixture)—1; for CI (combination index) of gossypol with the named natural product: CI < 1 synergy; for IC50: Zika virus, Vero C1008, Vero E6, natural product without combination, read-out: IC50 Alone
[11] = test system: ZIKV strain PLCal_ZV; assay: Plaque reduction inhibition assay, ZIKV PLCal_ZV in Vero E6 cells; type: cell-based; details: Zika virus, Vero C1008; plaque reduction, Vero E6 cells; read-out: IC50 PLCal_ZV
[12] = test system: ZIKV strain IbH 30656; assay: Plaque reduction inhibition assay, ZIKV IbH 30656 in Vero E6 cells; type: cell-based; details: Zika virus, Vero C1008; plaque reduction, Vero E6 cells; read-out: IC50 IbH 30656
[13] = test system: ZIKV strain PAN2016; type: cell-based, Zika virus (ZIKV); details: for Fold of Enhancement (natural product with gossypol) / CI (combination index) of gossypol with the named natural product: ZIKV PAN2016; for Fold of Enhancement (natural product with gossypol): (IC50 alone)/(IC50 in the mixture)—1; for CI (combination index) of gossypol with the named natural product: CI < 1 synergy; for IC50: Zika virus, Vero C1008, ZIKV PAN2016, Vero E6, natural product without combination, read-out: IC50 Alone
[14] = in vitro; details: rhesus monkey
[15] = test system: ZIKV strain PAN2016; assay: Plaque reduction inhibition assay, ZIKV PAN2016 in Vero E6 cells; type: cell-based; details: Zika virus, Vero C1008, Vero E6 cells; for IC90: 90% plaque reduction, read-out: IC90 against ZIKV PAN2016 strain; for IC50: plaque reduction, read-out: IC50 PAN2016
[16] = test system: Vero E6 cells
[17] = test system: DENV-4-PR 06-65-740; assay: Plaque reduction inhibition assay, DENV-4 in LLC-MK2 cells; type: cell-based; details: Dengue virus, DENV4
[18] = test system: ZIKV rhesus macaque strain MR 766; assay: Plaque reduction inhibition assay, ZIKV MR 766 in Vero E6 cells; type: cell-based; details: Zika virus, Vero C1008, in Macaca mulatta; plaque reduction, Vero E6 cells; read-out: IC50 MR 766
[19] = in vitro; details: African green monkey; remark: listed apart in the source
[20] = biological target: T1, ZIKV envelope protein domain III (EDIII) protein (Zika virus, UniProt A0A024B7W1); type: binding
T1 construct: E residues 298–409 fused with a C-terminal human Fc; made in house
T1 sequence (A0A024B7W1 588-699): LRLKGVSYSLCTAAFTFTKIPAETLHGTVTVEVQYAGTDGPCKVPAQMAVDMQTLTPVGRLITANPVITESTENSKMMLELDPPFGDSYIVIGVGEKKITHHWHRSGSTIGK

[21] = test system: Vero E6 cells; assay: Combinatorial cytotoxicity of gossypol with other natural products, CCK8; details: Vero E6, (CC50 alone)/(CC50 in the mixture)—1
[22] = biological target: ZIKV full-length E protein (Zika virus, UniProt A0A024B7W1); type: binding; details: ELISA
Chain of ZIKV full-length E protein (A0A024B7W1 291-794): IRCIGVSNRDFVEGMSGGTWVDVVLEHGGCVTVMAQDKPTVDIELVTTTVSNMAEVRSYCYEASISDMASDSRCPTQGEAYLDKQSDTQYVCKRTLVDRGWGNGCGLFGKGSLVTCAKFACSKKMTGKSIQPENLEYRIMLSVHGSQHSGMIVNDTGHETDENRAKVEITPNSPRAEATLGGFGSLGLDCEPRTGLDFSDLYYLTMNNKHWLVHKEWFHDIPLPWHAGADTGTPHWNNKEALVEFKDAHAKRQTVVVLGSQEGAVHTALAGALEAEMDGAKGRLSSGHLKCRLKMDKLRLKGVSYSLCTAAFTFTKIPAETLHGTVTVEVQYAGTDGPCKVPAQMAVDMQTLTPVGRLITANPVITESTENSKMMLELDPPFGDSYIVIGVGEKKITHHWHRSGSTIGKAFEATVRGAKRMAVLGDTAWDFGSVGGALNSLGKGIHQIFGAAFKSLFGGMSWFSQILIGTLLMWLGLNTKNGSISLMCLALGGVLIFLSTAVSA

[23] = test system: ZIKV strain PRVABC59; assay: Plaque reduction inhibition assay, ZIKV PRVABC59 in Vero E6 cells; type: cell-based; details: Zika virus, Vero C1008; plaque reduction, Vero E6 cells
[24] = test system: ZIKV (PAN2016); assay: Time-of-addition experiment, ZIKV PAN2016 in Vero E6 cells; type: cell-based, Zika virus (ZIKV); details: for inhibition at 30 µM: Zika virus
[25] = test system: ZIKV strain R103451; assay: Plaque reduction inhibition assay, ZIKV R103451 in Vero E6 cells; type: cell-based; details: Zika virus, Vero C1008; plaque reduction, Vero E6 cells; read-out: IC50 R103451
[26] = Vero C1008, 1 h, read-out: inhibition of ZIKV infection, step d: cotreatment at 37 °C

| Structure (SMILES) | IC50 [1] [µM] | IC50 [2] [µM] | IC50 [3] [µM] | CC50 at 3 days [4] [µM] | IC50 [5] [µM] | IC50 [6] [µM] | Fold of Enhancement (natural product with gossypol) [7] | CI (combination index) of gossypol with the named natural product [7] | IC50 [7] [µM] | IC50 [8] [µM] | IC50 [9] [µM] | IC50 [10] [µM] | IC50 [11] [µM] | IC50 [12] [µM] | IC50 [13] [µM] | IC50 [15] [µM] | IC50 [18] [µM] | CC50 at 3 days [19] [µM] | binding to ZIKV full-length E protein (in words) [22] | IC50 [23] [µM] | also measured |
| --- | --- | --- | --- | --- | --- | --- | --- | --- | --- | --- | --- | --- | --- | --- | --- | --- | --- | --- | --- | --- | --- |
| C[C@H]1[C@H]2CC[C@H]3[C@@H]4CC=C5C[C@@H](N(C)C)CC[C@]5(C)[C@H]4CC[C@]23CN1C [Conessine, conessine] | 7.41 ± 0.04 | 6.61 ± 0.6 | 9.65 ± 0.58 | 314.6 ± 2.32 | 7.18 ± 0.13 | 10.94 ± 0.06 | 6.29 | 0.28 | 9.4 ± 0.21 | 7.98 ± 0.29 | 7.09 ± 0.08 | 10.1 ± 0.45 | 8.11 ± 0.37 | 10.2 ± 0.41 | 10 ± 0.25 | 9.75 ± 0.26 | 7.44 ± 0.11 | 323.71 ± 0.25 | did not bind | 9.08 ± 0.33 | Fold of Enhancement (natural product with gossypol) [10]: 1.13; CI (combination index) of gossypol with the named natural product [10]: 0.85; Fold of Enhancement (natural product with gossypol) [13]: 3.44; CI (combination index) of gossypol with the named natural product [13]: 0.44; CC50 at 3 days [14]: 303 ± 13.4 µM; IC90 [15]: ~31.8 µM; cytotoxicity in Vero E6 cells observed under a microscope [16]: no obvious cytotoxicity; IC50 [17]: 7.27 ± 0.31 µM; binding to ZIKV EDIII protein (in words) [20]: did not bind; Fold of Enhancement of cytotoxicity (natural product with gossypol) [21]: ~5.78; inhibition at 30 µM [24, 26]: 80 to 96%; inhibition at 30 µM ([24]; Vero C1008, 1 h, read-out: inhibition of ZIKV infection, step e: penetration (membrane fusion)): 80 to 96%; inhibition at 30 µM ([24]; Vero C1008, 1 h, read-out: inhibition of ZIKV infection, step f: postentry stage): 80 to 96%; inhibition of ZIKV infection, step c: cotreatment at 4 °C (attachment) ([24]; cells, ZIKV and natural product 4 °C 1 h, gossypol 15 µM, curcumin 30 µM, digitonin 7.5 µM, conessine 30 µM): very low to no effect; inhibition of ZIKV infection, step a: pretreatment of ZIKV ([24]; natural product with ZIKV 37 °C 1 h before cells, gossypol 15 µM, curcumin 30 µM, digitonin 7.5 µM, conessine 30 µM): very low to no effect; IC50 [25]: 11.6 ± 0.33 µM |
| CC(C)C[C@H](NC(=O)[C@H](Cc1ccccc1)NC(=O)c1cnccn1)B(O)O [Bortezomib, bortezomib, reference compound] |  |  | 9.62 ± 0.59 | 17.77 ± 0.17 | 8.94 ± 0.1 | 7.67 ± 0.31 |  |  | 12.17 ± 0.07 | 9.88 ± 0.12 |  | 9.7 ± 0.76 | 31 ± 0.71 | 9.35 ± 0.23 | 10.65 ± 0.01 | 9.75 ± 0.03 | 9.51 ± 0.26 | 17 ± 0.2 | did not bind | 11.7 ± 0.82 | binding to ZIKV EDIII protein (in words) ([20]; ELISA): did not bind |
| COc1cc(/C=C/C(=O)CC(=O)/C=C/c2ccc(O)c(OC)c2)ccc1O [Curcumin, curcumin] | 2.09 ± 0.12 | 3.07 ± 0.07 | 16.6 ± 0.34 | 53.1 ± 1.83 | 14 ± 0.15 | 5.62 ± 0.52 | 5.46 | 0.30 | 12.46 ± 0.05 | 13.7 ± 0.37 | 9.37 ± 0.47 | 17.05 ± 0.08 | 10.8 ± 0.73 | 13.6 ± 0.31 | 13.2 ± 0.81 | 13.7 ± 0.72 | 11.4 ± 0.29 | 52.86 ± 0.52 | much lower binding affinity | 12.8 ± 0.35 | Fold of Enhancement (natural product with gossypol) [10]: 2.84; CI (combination index) of gossypol with the named natural product [10]: 0.49; Fold of Enhancement (natural product with gossypol) [13]: 2.60; CI (combination index) of gossypol with the named natural product [13]: 0.52; CC50 at 3 days [14]: 59.4 ± 1.18 µM; IC90 [15]: ~47.7 µM; cytotoxicity in Vero E6 cells observed under a microscope [16]: no obvious cytotoxicity; IC50 [17]: 4.83 ± 0.24 µM; binding to ZIKV EDIII protein (in words) ([20]; ELISA): much lower binding affinity; Fold of Enhancement of cytotoxicity (natural product with gossypol) [21]: 0.28; Fold of Enhancement of cytotoxicity (natural product with gossypol) ([21]; listed as curcumin): not enhanced; inhibition at 30 µM ([24]; Vero C1008, 1 h, read-out: inhibition of ZIKV infection, step c: cotreatment at 4 °C (attachment)): 75 to 100%; inhibition at 30 µM [24, 26]: 75 to 100%; inhibition at 30 µM ([24]; Vero C1008, read-out: inhibition of ZIKV infection, step a: pretreatment of ZIKV): 75 to 100%; inhibition of ZIKV infection, step e: penetration (membrane fusion) ([24]; cells with ZIKV 4 °C 1 h, then natural product 37 °C 1 h, gossypol 15 µM, curcumin 30 µM, digitonin 7.5 µM, conessine 30 µM): low to no impact; inhibition of ZIKV infection, step f: postentry stage ([24]; cells with ZIKV 37 °C 1 h, then natural product 37 °C 1 h, gossypol 15 µM, curcumin 30 µM, digitonin 7.5 µM, conessine 30 µM): low to no impact; inhibition of ZIKV infection, step b: pretreatment of cells ([24]; cells with natural product 37 °C 1 h before ZIKV, gossypol 15 µM, curcumin 30 µM, digitonin 7.5 µM, conessine 30 µM): low to no impact; IC50 [25]: 11.2 ± 0.37 µM |
